These are literature values, as cited in patent publication US12194028B2 (Slayback Pharma LLC, priority 2022, dated 2025).

Molecules are shown by their SMILES.

As for `COc1ccc(-n2nc(C(N)=O)c3c2C(=O)N(c2ccc(N4CCCCC4=O)cc2)CC3)cc1` [apixaban, 1-(4-methoxyphenyl)-7-oxo-6-[4-(2-oxopiperidin-1-yl)phenyl]-4,5-dihydropyrazolo [3,4-c] pyridine-3-carboxamide], the aqueous solubility (in water) is 0.04 to 0.05 mg/mL. Moreover, under “throughout physiological pH range of 1.0-8.0”, the solubility result was “very low”.
